The CheMixHub viscosity set
± gives the uncertainty stated by the source.

Assay: xn = mol fraction of the nth substance listed

CCCCCN + CCC(=O)O
viscosity [mPa·s], 101.33 kPa
Conditions | 293.15 K | 298.15 K | 298.5 K | 303.15 K | 308.15 K | 313.15 K | 318.15 K | 323.15 K
x2 = 0.1 | 1.62 ± 0.01 | 1.53 ± 0.01 | – | 1.42 ± 0.01 | 1.4 ± 0.01 | 1.32 ± 0.01 | 1.24 ± 0.01 | –
x2 = 0.2 | 1.97 ± 0.16 | 1.86 ± 0.02 | – | 1.74 ± 0.01 | 1.69 ± 0.01 | 1.6 ± 0.01 | 1.51 ± 0.01 | –
x2 = 0.3 | 13.7 ± 0.89 | 11.78 ± 0.13 | – | 10.12 ± 0.11 | 8.82 ± 0.09 | 7.77 ± 0.08 | 6.87 ± 0.07 | –
x2 = 0.4 | 85.81 ± 7.5 | – | 71.98 ± 1.3 | 56.82 ± 1 | 46.99 ± 0.71 | 39.47 ± 0.55 | 33.6 ± 0.44 | 28.82 ± 0.31
x2 = 0.5 | 707.8 ± 6.1 | 510.2 ± 7.2 | – | 386 ± 4.7 | 296.3 ± 3.5 | 226.2 ± 2.6 | 178.3 ± 1.9 | –
x2 = 0.6 | 368.1 ± 4.9 | 274.6 ± 3.6 | – | 210 ± 2.5 | 164.6 ± 1.9 | 130.8 ± 1.4 | 103.8 ± 1.1 | –
x2 = 0.7 | 75.4 ± 1.1 | 60.4 ± 0.89 | – | 48.75 ± 0.67 | 40.4 ± 0.52 | 33.8 ± 0.41 | 28.4 ± 0.32 | –

c1cscn1 + ClC(Cl)(Cl)Cl
298.15 K, 101 kPa
Conditions | viscosity [mPa·s]
x1 = 0.1198 | 0.9186 ± 0.024
x1 = 0.2066 | 0.9327 ± 0.025
x1 = 0.2139 | 0.933 ± 0.025
x1 = 0.2899 | 0.9459 ± 0.025
x1 = 0.3525 | 0.9561 ± 0.025
x1 = 0.4862 | 0.9809 ± 0.026
x1 = 0.592 | 0.994 ± 0.026
x1 = 0.689 | 1.007 ± 0.027
x1 = 0.7728 | 1.01 ± 0.027
x1 = 0.8194 | 1.011 ± 0.027
x1 = 0.8719 | 1.011 ± 0.027
x1 = 0.9315 | 1.006 ± 0.027

Cc1ccccc1[N+](=O)[O-] + Cc1ccc(C)cc1
308.15 K, 101.33 kPa
Conditions | viscosity [mPa·s]
x2 = 0.1044 | 1.342 ± 0.008
x2 = 0.2016 | 1.153 ± 0.007
x2 = 0.2968 | 1.034 ± 0.007
x2 = 0.4024 | 0.942 ± 0.006
x2 = 0.4938 | 0.879 ± 0.006
x2 = 0.6032 | 0.81 ± 0.005
x2 = 0.6951 | 0.754 ± 0.005
x2 = 0.8009 | 0.681 ± 0.005
x2 = 0.8955 | 0.624 ± 0.004

CC(C)CC1CCCCC1 + CCCCCCCCCCCCCCCC
viscosity [mPa·s], 102 kPa
Conditions | x1 = 0.1 | x1 = 0.2005 | x1 = 0.3003 | x1 = 0.3992 | x1 = 0.5037 | x1 = 0.6003 | x1 = 0.6997 | x1 = 0.7997
293.15 K | 3.22 ± 0.03 | 2.96 ± 0.02 | 2.7 ± 0.02 | 2.46 ± 0.02 | 2.2 ± 0.02 | 1.99 ± 0.02 | 1.77 ± 0.02 | 1.56 ± 0.02
303.15 K | 2.57 ± 0.02 | 2.38 ± 0.02 | 2.19 ± 0.02 | 2.01 ± 0.02 | 1.82 ± 0.02 | 1.65 ± 0.02 | 1.48 ± 0.02 | 1.31 ± 0.02
313.15 K | 2.1 ± 0.02 | 1.95 ± 0.02 | 1.81 ± 0.02 | 1.67 ± 0.02 | 1.52 ± 0.02 | 1.39 ± 0.02 | 1.26 ± 0.02 | 1.12 ± 0.02
323.15 K | 1.74 ± 0.02 | 1.63 ± 0.02 | 1.52 ± 0.02 | 1.41 ± 0.02 | 1.29 ± 0.02 | 1.19 ± 0.02 | 1.07 ± 0.02 | 0.972 ± 0.021
